Source: paper PMC3050021 (Cancer cell, 2010)
“Also recorded” adds a separate entry of the source. Residues, ends and D or L forms follow the SMILES beside them. *: point of attachment. Cbz = O=C(OCc1ccccc1)*

Key:
SJSA-X cells [1] = assay: Combination / synergy study, SJSA-X; assay type: cell-based; conditions: SJSA-X (induced HDMX expression in isogenic SJSA-1), 0.5–20 µM; Figure 7G
[2] = ref Vassilev et al., 2004; cited from earlier work
[3] = test system: p53-HDMX complex (MCF-7 cells); assay: Anti-HDMX immunoprecipitation, p53 western, MCF-7; assay type: cell-based; conditions: Nutlin-3 20 µM alone or with 5 or 20 µM SAH-p53-8, 10 µM MG-132, 6 h, Figure 7A
[4] = test system: WS1 normal human fibroblasts; assay: Cell viability WS1 normal fibroblasts; conditions: 0.3–20 µM, 24 h, CellTiter-Glo; Figure 3I
MCF-7 cells [5] = assay: Cell viability MCF-7; assay type: cell-based; conditions: 0.3–20 µM, 24 h, CellTiter-Glo; HDM2- and HDMX-expressing breast cancer; Figure 3A–E
SJSA-1 cells = assay: Cell viability SJSA-1; assay type: cell-based; conditions: 0.3–20 µM, 24 h, CellTiter-Glo; HDM2-overexpressing osteosarcoma; Figure 3A
JEG-3 cells = assay: Cell viability JEG-3; assay type: cell-based, human; conditions: 0.3–20 µM, 24 h, CellTiter-Glo; HDMX-overexpressing choriocarcinoma; Figure 3C
A431 cells (R273H p53) = assay: Cell viability A431; assay type: cell-based; conditions: 0.3–20 µM, 24 h, CellTiter-Glo; R273H p53 mutation
HCT116 cells = assay: Cell viability HCT116; assay type: cell-based; conditions: 0.3–20 µM, 24 h, CellTiter-Glo; HDM2- and HDMX-expressing colon cancer; Figure 3A–E
[6] = test system: caspase-3/7 (JEG-3 cells); assay: Caspase-3/7 activation, JEG-3; assay type: cell-based, human; conditions: 0.3–10 µM, 12 h, Caspase-3/7-Glo, Figure 5B
[7] = test system: HCT116 cells deficient in p53; assay: Cell viability HCT116 deficient in p53; assay type: cell-based; conditions: 0.3–20 µM, 24 h, CellTiter-Glo; genetic deletion of p53; Figure 3F, 3G
[8] = test system: p53-HDMX complex (JEG-3 cells); assay: Anti-HDMX immunoprecipitation, p53 western, JEG-3; assay type: cell-based, human
SJSA-X cells [9] = assay: Cell viability SJSA-X; assay type: cell-based; conditions: 0.3–20 µM, 24 h, CellTiter-Glo; overexpresses HDM2 and HDMX; Figure 3B
[10] = test system: osteosarcoma murine xenograft; conditions: ref Vassilev et al., 2004; cited from earlier work
p53 (MCF-7 cells) = assay: p53 western analysis, MCF-7; conditions: Nutlin-3 20 µM, 10 µM MG-132, 6 h, Figure 7A
p53 (JEG-3 cells) = assay: p53 western analysis, JEG-3; assay type: cell-based, human; conditions: 20 µM, 6 h, Figure 4A
HDM2 = conditions: ref Vassilev et al., 2004; cited from earlier work
MCF-7 cells [11] = conditions: ref Wade et al., 2008; cited from earlier work

Compound	single-agent effect in synergy study (SJSA-X cells [1])	cell cycle arrest and apoptosis [2]	p53-HDMX complex [3]	viability of normal human fibroblasts WS1 [4]	cell viability MCF-7 (MCF-7 cells [5])	cell viability SJSA-1 (SJSA-1 cells)	cell viability JEG-3 (JEG-3 cells)	cell viability A431 (A431 cells (R273H p53))	cell viability HCT116 (HCT116 cells)	caspase-3/7 activation [6]	cell viability HCT116 deficient in p53 [7]	p53-HDMX complex ([8]; 20 µM, 6 h, anti-HDMX IP, Figure 4A)	cell viability SJSA-X (SJSA-X cells [9])	anti-tumor efficacy [10]	p53 levels (p53 (MCF-7 cells))	p53 levels (p53 (JEG-3 cells))	inhibition of HDM2 (HDM2)	sensitivity of MCF-7 to Nutlin-3 (MCF-7 cells [11])	p53-HDMX complex in the presence of MG-132 ([8]; 0–20 µM SAH-p53-8 with 10 µM MG-132, 6 h, Figure 4B)
COc1ccc(C2=N[C@@H](c3ccc(Cl)cc3)[C@@H](c3ccc(Cl)cc3)N2C(=O)N2CCNC(=O)C2)c(OC(C)C)c1 [Nutlin-3]	ineffective as a single agent	triggers cell cycle arrest and apoptosis	appearance of the inhibitory p53-HDMX complex	no impact on the viability of normal human fibroblasts	modestly sensitive	very sensitive; also recorded: more cytotoxic than SAH-p53-8 in SJSA-1 cells	little to no response; also recorded: most resistant to Nutlin-3	similarly unaffected	modestly sensitive	little effect	completely insensitive	p53-HDMX complexes were preserved, if not increased	little to no response	exhibits anti-tumor efficacy	can elevate p53 levels in MCF-7 cells	an increase in p53 levels was observed	inhibits HDM2	only modestly sensitive	
CC(C)C[C@@H](C=O)NC(=O)[C@H](CC(C)C)NC(=O)[C@H](CC(C)C)NC(=O)OCc1ccccc1 [MG-132] (Cbz-Leu-Leu-Leu-aldehyde)																			increased p53-HDMX complex
